“And” between values parts separate entries of the source, which are not always exact repeats. Equal values may be shown once.
Assay: molar heat capacity at constant pressure; xn = mol fraction of the nth substance listed
Conditions: 100 kPa

[Si] [silicon] + [Li]
Conditions | molar heat capacity at constant pressure
2.03 K, Crystal of intercomponent compound 1, relaxation calorimetry, x2 = 0.81 | 0.0088 J/K/mol
2.03 K, Crystal of intercomponent compound 2, relaxation calorimeter, x2 = 0.804 | 0.0022 J/K/mol
2.13 K, Crystal of intercomponent compound 1, relaxation calorimetry, x2 = 0.81 | 0.0091 J/K/mol
2.13 K, Crystal of intercomponent compound 2, relaxation calorimeter, x2 = 0.804 | 0.0023 J/K/mol
2.14 K, Crystal of intercomponent compound 2, relaxation calorimeter, x2 = 0.804 | 0.0022 J/K/mol
2.25 K, Crystal of intercomponent compound 1, relaxation calorimetry, x2 = 0.81 | 0.0096 J/K/mol
2.25 K, Crystal of intercomponent compound 2, relaxation calorimeter, x2 = 0.804 | 0.0024 J/K/mol and 0.0023 J/K/mol
2.37 K, Crystal of intercomponent compound 1, relaxation calorimetry, x2 = 0.81 | 0.0101 J/K/mol
2.37 K, Crystal of intercomponent compound 2, relaxation calorimeter, x2 = 0.804 | 0.0024 J/K/mol and 0.0025 J/K/mol
2.49 K, Crystal of intercomponent compound 1, relaxation calorimetry, x2 = 0.81 | 0.0107 J/K/mol
2.49 K, Crystal of intercomponent compound 2, relaxation calorimeter, x2 = 0.804 | 0.0026 J/K/mol
2.5 K, Crystal of intercomponent compound 2, relaxation calorimeter, x2 = 0.804 | 0.0025 J/K/mol
2.63 K, Crystal of intercomponent compound 1, relaxation calorimetry, x2 = 0.81 | 0.0111 J/K/mol
2.63 K, Crystal of intercomponent compound 2, relaxation calorimeter, x2 = 0.804 | 0.0028 J/K/mol and 0.0025 J/K/mol
2.77 K, Crystal of intercomponent compound 1, relaxation calorimetry, x2 = 0.81 | 0.0116 J/K/mol
2.77 K, Crystal of intercomponent compound 2, relaxation calorimeter, x2 = 0.804 | 0.0028 J/K/mol
2.92 K, Crystal of intercomponent compound 1, relaxation calorimetry, x2 = 0.81 | 0.0121 J/K/mol
2.92 K, Crystal of intercomponent compound 2, relaxation calorimeter, x2 = 0.804 | 0.0031 J/K/mol and 0.003 J/K/mol
3.08 K, Crystal of intercomponent compound 1, relaxation calorimetry, x2 = 0.81 | 0.0126 J/K/mol
3.08 K, Crystal of intercomponent compound 2, relaxation calorimeter, x2 = 0.804 | 0.0032 J/K/mol and 0.003 J/K/mol
3.24 K, Crystal of intercomponent compound 1, relaxation calorimetry, x2 = 0.81 | 0.0133 J/K/mol
3.24 K, Crystal of intercomponent compound 2, relaxation calorimeter, x2 = 0.804 | 0.0035 J/K/mol and 0.0032 J/K/mol
3.41 K, Crystal of intercomponent compound 1, relaxation calorimetry, x2 = 0.81 | 0.0135 J/K/mol
3.41 K, Crystal of intercomponent compound 2, relaxation calorimeter, x2 = 0.804 | 0.0036 J/K/mol
3.6 K, Crystal of intercomponent compound 1, relaxation calorimetry, x2 = 0.81 | 0.0141 J/K/mol
3.6 K, Crystal of intercomponent compound 2, relaxation calorimeter, x2 = 0.804 | 0.0039 J/K/mol and 0.0036 J/K/mol
3.79 K, Crystal of intercomponent compound 1, relaxation calorimetry, x2 = 0.81 | 0.015 J/K/mol
3.79 K, Crystal of intercomponent compound 2, relaxation calorimeter, x2 = 0.804 | 0.0041 J/K/mol and 0.004 J/K/mol
3.99 K, Crystal of intercomponent compound 1, relaxation calorimetry, x2 = 0.81 | 0.0157 J/K/mol
3.99 K, Crystal of intercomponent compound 2, relaxation calorimeter, x2 = 0.804 | 0.0044 J/K/mol and 0.0042 J/K/mol
4.2 K, Crystal of intercomponent compound 1, relaxation calorimetry, x2 = 0.81 | 0.0163 J/K/mol
4.2 K, Crystal of intercomponent compound 2, relaxation calorimeter, x2 = 0.804 | 0.0047 J/K/mol and 0.0044 J/K/mol
4.43 K, Crystal of intercomponent compound 1, relaxation calorimetry, x2 = 0.81 | 0.0172 J/K/mol
4.43 K, Crystal of intercomponent compound 2, relaxation calorimeter, x2 = 0.804 | 0.0048 J/K/mol and 0.005 J/K/mol
4.66 K, Crystal of intercomponent compound 2, relaxation calorimeter, x2 = 0.804 | 0.0051 J/K/mol
4.67 K, Crystal of intercomponent compound 1, relaxation calorimetry, x2 = 0.81 | 0.0175 J/K/mol
4.67 K, Crystal of intercomponent compound 2, relaxation calorimeter, x2 = 0.804 | 0.0052 J/K/mol
4.91 K, Crystal of intercomponent compound 2, relaxation calorimeter, x2 = 0.804 | 0.0056 J/K/mol
4.92 K, Crystal of intercomponent compound 1, relaxation calorimetry, x2 = 0.81 | 0.0182 J/K/mol
4.92 K, Crystal of intercomponent compound 2, relaxation calorimeter, x2 = 0.804 | 0.0054 J/K/mol
5 K, Crystal of intercomponent compound 1, relaxation calorimetry + DSC, x2 = 0.81 | 0.0184 J/K/mol
5 K, Crystal of intercomponent compound 2, relaxation calorimetry + DSC, x2 = 0.804 | 0.0056 J/K/mol
5.18 K, Crystal of intercomponent compound 1, relaxation calorimetry, x2 = 0.81 | 0.0193 J/K/mol
5.18 K, Crystal of intercomponent compound 2, relaxation calorimeter, x2 = 0.804 | 0.006 J/K/mol and 0.0057 J/K/mol
5.46 K, Crystal of intercomponent compound 2, relaxation calorimeter, x2 = 0.804 | 0.0064 J/K/mol
5.47 K, Crystal of intercomponent compound 1, relaxation calorimetry, x2 = 0.81 | 0.0201 J/K/mol
5.47 K, Crystal of intercomponent compound 2, relaxation calorimeter, x2 = 0.804 | 0.0061 J/K/mol
5.76 K, Crystal of intercomponent compound 1, relaxation calorimetry, x2 = 0.81 | 0.0206 J/K/mol
5.76 K, Crystal of intercomponent compound 2, relaxation calorimeter, x2 = 0.804 | 0.007 J/K/mol and 0.0066 J/K/mol
6.07 K, Crystal of intercomponent compound 1, relaxation calorimetry, x2 = 0.81 | 0.0218 J/K/mol
6.07 K, Crystal of intercomponent compound 2, relaxation calorimeter, x2 = 0.804 | 0.0075 J/K/mol and 0.0071 J/K/mol
6.39 K, Crystal of intercomponent compound 1, relaxation calorimetry, x2 = 0.81 | 0.0227 J/K/mol
6.39 K, Crystal of intercomponent compound 2, relaxation calorimeter, x2 = 0.804 | 0.0083 J/K/mol and 0.0079 J/K/mol
6.73 K, Crystal of intercomponent compound 1, relaxation calorimetry, x2 = 0.81 | 0.0242 J/K/mol
6.73 K, Crystal of intercomponent compound 2, relaxation calorimeter, x2 = 0.804 | 0.0091 J/K/mol and 0.0088 J/K/mol
7.09 K, Crystal of intercomponent compound 1, relaxation calorimetry, x2 = 0.81 | 0.0252 J/K/mol
7.09 K, Crystal of intercomponent compound 2, relaxation calorimeter, x2 = 0.804 | 0.0098 J/K/mol and 0.01 J/K/mol
7.47 K, Crystal of intercomponent compound 1, relaxation calorimetry, x2 = 0.81 | 0.0267 J/K/mol
7.47 K, Crystal of intercomponent compound 2, relaxation calorimeter, x2 = 0.804 | 0.0113 J/K/mol and 0.0109 J/K/mol
7.87 K, Crystal of intercomponent compound 1, relaxation calorimetry, x2 = 0.81 | 0.0284 J/K/mol
7.87 K, Crystal of intercomponent compound 2, relaxation calorimeter, x2 = 0.804 | 0.0126 J/K/mol and 0.0123 J/K/mol
8.29 K, Crystal of intercomponent compound 2, relaxation calorimeter, x2 = 0.804 | 0.0143 J/K/mol and 0.0139 J/K/mol
8.3 K, Crystal of intercomponent compound 1, relaxation calorimetry, x2 = 0.81 | 0.0304 J/K/mol
8.74 K, Crystal of intercomponent compound 1, relaxation calorimetry, x2 = 0.81 | 0.0327 J/K/mol
8.74 K, Crystal of intercomponent compound 2, relaxation calorimeter, x2 = 0.804 | 0.016 J/K/mol and 0.0162 J/K/mol
9.2 K, Crystal of intercomponent compound 1, relaxation calorimetry, x2 = 0.81 | 0.0351 J/K/mol
9.2 K, Crystal of intercomponent compound 2, relaxation calorimeter, x2 = 0.804 | 0.0183 J/K/mol and 0.0187 J/K/mol
9.69 K, Crystal of intercomponent compound 2, relaxation calorimeter, x2 = 0.804 | 0.0216 J/K/mol and 0.0208 J/K/mol
9.7 K, Crystal of intercomponent compound 1, relaxation calorimetry, x2 = 0.81 | 0.038 J/K/mol
10 K, Crystal of intercomponent compound 1, relaxation calorimetry + DSC, x2 = 0.81 | 0.0403 J/K/mol
10 K, Crystal of intercomponent compound 2, relaxation calorimetry + DSC, x2 = 0.804 | 0.0233 J/K/mol
10.22 K, Crystal of intercomponent compound 1, relaxation calorimetry, x2 = 0.81 | 0.0412 J/K/mol
10.22 K, Crystal of intercomponent compound 2, relaxation calorimeter, x2 = 0.804 | 0.0245 J/K/mol and 0.025 J/K/mol
10.75 K, Crystal of intercomponent compound 1, relaxation calorimetry, x2 = 0.81 | 0.0449 J/K/mol
10.75 K, Crystal of intercomponent compound 2, relaxation calorimeter, x2 = 0.804 | 0.0286 J/K/mol and 0.0291 J/K/mol
11.32 K, Crystal of intercomponent compound 1, relaxation calorimetry, x2 = 0.81 | 0.0492 J/K/mol
11.32 K, Crystal of intercomponent compound 2, relaxation calorimeter, x2 = 0.804 | 0.0342 J/K/mol and 0.0335 J/K/mol
11.93 K, Crystal of intercomponent compound 1, relaxation calorimetry, x2 = 0.81 | 0.0547 J/K/mol
11.93 K, Crystal of intercomponent compound 2, relaxation calorimeter, x2 = 0.804 | 0.0403 J/K/mol and 0.0398 J/K/mol
12.56 K, Crystal of intercomponent compound 1, relaxation calorimetry, x2 = 0.81 | 0.0613 J/K/mol
